# Article PMC4769701, “Discovery and characterization of a high-affinity and high-specificity peptide ligand LXY30 for in vivo targeting of α3 integrin-expressing human tumors” (EJNMMI Research, 2016)
# Positions of bridges follow the written chain, without caps; N, C: chain ends. Non-standard residues stand in square brackets, D forms with d. Residues, ends and D or L forms follow the SMILES beside them. Phe(3,4,5-F3) = N[C@@H](Cc1cc(F)c(F)c(F)c1)C(=O)O; Phe(3,5-F2) = N[C@@H](Cc1cc(F)cc(F)c1)C(=O)O; Hyp = O=C(O)[C@@H]1C[C@@H](O)CN1
# Experiments:
# [1] = test system: subcutaneous U-87MG xenograft tumors; assay: In vivo NIRF optical imaging, subcutaneous xenograft; design: species or system nude mice; conditions: for improvement in tumor targeting over LXY1: optical imaging, U-87MG glioblastoma xenograft model, data not shown
# Text: Halogen lamp light source was set to maximum.
# [2] = In vitro stability assay in human plasma; format: in vitro ADME; conditions: 90% human plasma (EDTA, healthy donors); 200 µM in 90% human plasma, 37°C, up to 8 days, RP-HPLC; t1/2=1/kobs·ln(2)
# Procedure: Figure S3. The in vitro stability of LXY30 in human plasma. LXY30 was incubated with 90% human plasma from healthy donor at 37°C for up to 8 days. The peptide concentrations were determined by integration of the LXY30 peak (area) from reversed-phase high-performance liquid chromatography (RP-HPLC) chromatograms at UV 214 nm. The half-life of LXY30 in the plasma was calculated as 16.0 days using the formula t1/2=1/kobs·ln(2). Assays were performed in triplicate.
# Human plasma was separated from the peripheral blood collected in the EDTA-containing blood collection tube from healthy donors. One hundred microliters of LXY30 solution (2 mM in water) was mixed with 900 µL of plasma (final concentration of LXY30 was 200 µM) and incubated at 37°C under sterile conditions. […] A control plasma sample without LXY30 but treated in the same manner was also analyzed. […]
# RP-HPLC analysis was performed on the Waters 2996 HPLC system equipped with a Luna® analytical column from Phenomenex (5 µm, C18, 100 A°, 250 x 4.6 mm). […] The relative concentrations of the remaining LXY30 were analyzed by the integration of the absorbance at 214 nm (area).
# Half-life (t1/2) for LXY30 in the plasma solution was calculated from plots of the natural logarithm of the residual concentration against time using the formula t1/2=1/kobs·ln(2), where kobs is the apparent first order rate constant for the observed degradation.
# H1975 = assay: LXY30 binding by flow cytometry; design: species or system human; conditions: 1µM LXY30; H1975, lung, adenocarcinoma
# Procedure: (§1) Confluent tumor cells (80–90 %) were dissociated with 0.05 % trypsin-EDTA and neutralized with culture medium. To determine the expression of α3 and β1 integrins, 1 μg of anti-α3 or anti-β1 antibody was mixed with 1 million cells for 30 min, followed by anti-mouse IgG-PE incubation and flow cytometry (Coulter XL-MCL). […] Then each sample was washed three times with 1 mL PBS containing 1 % FBS. Samples thereafter were incubated with a 1:500 dilution of streptavidin-PE (1 mg/mL) for 30 min on ice followed by a single wash with 1 mL of PBS containing 1 % FBS. Finally, the samples in PBS were analyzed by flow cytometry. […] The mixture was then incubated with cancer cells followed by streptavidin-PE. Samples were analyzed by flow cytometry, and mean fluorescence intensity (MFI) was decided for each individual sample. […] For blocking experiments, the samples were incubated with non-biotinylated LXY30, anti-α3, or anti-β1 antibody for 30 min prior to incubation with 20 nM biotinylated LXY30.
# (§2) *(MFI W/ LXY30)/ (MFI W/O LXY30): Mean Fluorescence Intensity of cells incubated with 1µM LXY30 divided by Mean Fluorescence Intensity of cells without incubation with LXY30.
# (§3) Mean Fluorescence Intensity (MFI) was used as the quantitative measurement. The binding strength was grouped into five categories based on the value. “0”: 1 “1+”: 1.1~4.9 “2+”: 5~19.9 “3+”: 20~79.9 “4+”: > or = 80-fold
# T47D = assay: LXY30 binding by flow cytometry; design: species or system human; conditions: 1µM LXY30, breast, luminal A
# Procedure: as §1, §2, §3
# BT-20 = assay: LXY30 binding by flow cytometry; design: species or system human; conditions: 1µM LXY30; BT-20, breast, basal like
# Procedure: as §1, §2, §3
# A549 = assay: LXY30 binding by flow cytometry; design: species or system human; conditions: 1µM LXY30; A549, lung, adenocarcinoma
# Procedure: as §1, §2, §3
# H2228 = assay: LXY30 binding by flow cytometry; design: species or system human; conditions: 1µM LXY30; H2228, lung, adenocarcinoma
# Procedure: as §1, §2, §3
# H3255 = assay: LXY30 binding by flow cytometry; design: species or system human; conditions: 1µM LXY30; H3255, lung, adenocarcinoma
# Procedure: as §1, §2, §3
# SKBR3 = assay: LXY30 binding by flow cytometry; design: species or system human; conditions: 1µM LXY30; SKBR3, breast, HER2
# Procedure: as §1, §2, §3
# H460 = assay: LXY30 binding by flow cytometry; design: species or system human; conditions: 1µM LXY30; H460, lung, large cell
# Procedure: as §1, §2, §3
# H1650 = assay: LXY30 binding by flow cytometry; design: species or system human; conditions: 1µM LXY30; H1650, lung, bronchoalveolar
# Procedure: as §1, §2, §3
# MDA-MB 231 = assay: LXY30 binding by flow cytometry; design: species or system human; conditions: 1µM LXY30; MDA-MB 231, breast, basal like
# Procedure: as §1, §2, §3
# MCF7 = assay: LXY30 binding by flow cytometry; design: species or system human; conditions: 1µM LXY30; MCF7, breast, luminal A
# Procedure: as §1, §2, §3
# HCC827 = assay: LXY30 binding by flow cytometry; design: species or system human; conditions: 1µM LXY30; HCC827, lung, adenocarcinoma
# Procedure: as §1, §2, §3
# [3] = target: T1, α3β1 integrin-expressing U-87MG glioblastoma cells (Homo sapiens, UniProt P26006); assay: biochemical; format: binding; conditions: for Relative binding index: peptide 0.4 μM competing with 0.5 μM LXY1-biotin on U-87MG cells, relative to LXY1, greater RBI = higher affinity; for IC50: series of concentrations competing with 0.5 μM LXY1-biotin binding to U-87MG cells
# T1 construct: we incubated U-87MG cells which express α3β1 integrin; endogenous in cells; host or cells: U-87MG human glioblastoma cells
# T1 sequence (P26006 33-872 limits assumed): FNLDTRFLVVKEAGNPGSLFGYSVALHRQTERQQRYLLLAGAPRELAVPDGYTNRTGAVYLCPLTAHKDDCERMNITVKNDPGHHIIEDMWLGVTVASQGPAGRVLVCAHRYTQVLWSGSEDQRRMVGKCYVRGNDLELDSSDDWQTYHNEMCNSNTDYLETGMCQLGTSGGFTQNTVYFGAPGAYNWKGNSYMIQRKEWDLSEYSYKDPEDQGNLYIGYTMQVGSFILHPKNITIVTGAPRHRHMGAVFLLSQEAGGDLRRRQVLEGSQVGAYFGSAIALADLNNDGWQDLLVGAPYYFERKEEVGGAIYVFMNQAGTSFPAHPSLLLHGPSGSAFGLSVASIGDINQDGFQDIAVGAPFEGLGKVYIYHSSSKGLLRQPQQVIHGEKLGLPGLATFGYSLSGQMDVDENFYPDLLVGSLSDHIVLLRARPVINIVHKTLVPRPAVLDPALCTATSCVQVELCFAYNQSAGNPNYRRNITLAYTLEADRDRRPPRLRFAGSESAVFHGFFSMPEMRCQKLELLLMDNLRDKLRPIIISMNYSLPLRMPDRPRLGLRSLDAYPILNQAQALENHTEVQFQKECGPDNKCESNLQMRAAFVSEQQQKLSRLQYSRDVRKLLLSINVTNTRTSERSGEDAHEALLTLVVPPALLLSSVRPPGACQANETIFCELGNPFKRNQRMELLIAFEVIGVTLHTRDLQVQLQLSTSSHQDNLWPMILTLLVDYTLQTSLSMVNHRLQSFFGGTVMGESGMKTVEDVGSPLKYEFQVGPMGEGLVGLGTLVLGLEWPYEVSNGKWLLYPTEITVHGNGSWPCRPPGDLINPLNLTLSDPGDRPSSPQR
# T1 sequence (P26006 873-1051 partner limits assumed): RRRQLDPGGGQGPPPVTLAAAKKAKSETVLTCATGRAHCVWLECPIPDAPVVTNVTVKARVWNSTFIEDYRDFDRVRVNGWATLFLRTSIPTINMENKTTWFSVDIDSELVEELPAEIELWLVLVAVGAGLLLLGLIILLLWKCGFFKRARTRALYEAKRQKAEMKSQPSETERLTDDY
# T1 sequence (P05556 21-798 partner): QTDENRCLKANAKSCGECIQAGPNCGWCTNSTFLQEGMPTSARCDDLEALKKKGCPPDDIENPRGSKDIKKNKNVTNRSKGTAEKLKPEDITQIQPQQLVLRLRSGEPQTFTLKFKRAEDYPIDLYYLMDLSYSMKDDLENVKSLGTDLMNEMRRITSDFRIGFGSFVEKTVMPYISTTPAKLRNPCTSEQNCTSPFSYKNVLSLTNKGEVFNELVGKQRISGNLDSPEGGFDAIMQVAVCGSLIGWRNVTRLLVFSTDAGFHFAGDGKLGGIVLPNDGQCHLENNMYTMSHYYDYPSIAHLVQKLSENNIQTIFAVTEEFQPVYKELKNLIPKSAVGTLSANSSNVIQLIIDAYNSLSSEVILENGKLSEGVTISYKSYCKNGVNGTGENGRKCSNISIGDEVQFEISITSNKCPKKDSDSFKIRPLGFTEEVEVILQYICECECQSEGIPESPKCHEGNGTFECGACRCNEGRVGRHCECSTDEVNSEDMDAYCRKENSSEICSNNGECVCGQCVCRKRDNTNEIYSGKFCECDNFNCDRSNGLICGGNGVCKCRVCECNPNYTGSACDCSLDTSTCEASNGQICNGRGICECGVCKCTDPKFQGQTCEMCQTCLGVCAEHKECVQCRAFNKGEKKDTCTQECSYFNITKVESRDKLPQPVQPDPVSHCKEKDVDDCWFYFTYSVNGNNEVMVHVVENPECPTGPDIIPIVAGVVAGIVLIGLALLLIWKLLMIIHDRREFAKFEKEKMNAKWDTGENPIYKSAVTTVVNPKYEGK
# Procedure: as §1, with “(80-90” for “(80–90”
# [4] = target: T2, α3 subunit of α3β1 integrin on U-87MG cells (Homo sapiens, UniProt P26006); assay: Blocking of LXY30-biotin binding to U-87MG cells, flow cytometry; conditions: 100 μM free peptide pre-incubated 30 min before 20 nM LXY30-biotin
# T2 construct: we incubated U-87MG cells which express α3β1 integrin; endogenous in cells; host or cells: U-87MG human glioblastoma cells
# T2 sequence (P26006 33-872 limits assumed): as the sequence (P26006 33-872 limits assumed) above
# T2 sequence (P26006 873-1051 partner limits assumed): as the sequence (P26006 873-1051 partner limits assumed) above
# T2 sequence (P05556 21-798 partner): as the sequence (P05556 21-798 partner) above
# Procedure: as §1
# Fig. 2 Synthesis and chemical structures of several peptide conjugates and binding specificity of LXY30 to U-87MG cells. The synthesis and chemical structures of peptide conjugates LXY30-biotin, LXY30-FITC, and scrambled-LXY30-FITC (S-LXY30-FITC) used for in vitro and in vivo characterization, as well as imaging studies were shown (a). […]
compound,measurement,setting,value
cdG-Tyr(3-NO2)-G-Hyp-Nc [LXY3],improvement in tumor targeting over LXY1,[1],did not show improvement
"N=C(N)NCCC[C@H](NC(=O)[C@H]1CSSC[C@@H](N)C(=O)N[C@H](CC(=O)O)C(=O)NCC(=O)N[C@@H](Cc2cc(F)cc(F)c2)C(=O)NCC(=O)N2C[C@H](O)C[C@H]2C(=O)N[C@@H](CC(N)=O)C(=O)N1)C(N)=O [LXY30, cdG-Phe(3,5-diF)-G-Hyp-NcR] (H-[dC][dD]G[Phe(3,5-F2)]G[Hyp]N[dC]R-NH2; disulfide 1-8; N-terminus assumed)",half-life at 200 µM,[2],16 days
same,(MFI W/ LXY30)/ (MFI W/O LXY30),H1975,4+ (“4+”: > or = 80-fold)
same,(MFI W/ LXY30)/ (MFI W/O LXY30),T47D,1+ (“1+”: 1.1~4.9)
same,(MFI W/ LXY30)/ (MFI W/O LXY30),BT-20,2+ (“2+”: 5~19.9)
same,(MFI W/ LXY30)/ (MFI W/O LXY30),A549,4+ (“4+”: > or = 80-fold)
same,(MFI W/ LXY30)/ (MFI W/O LXY30),H2228,4+ (“4+”: > or = 80-fold)
same,(MFI W/ LXY30)/ (MFI W/O LXY30),H3255,2+ (“2+”: 5~19.9)
same,(MFI W/ LXY30)/ (MFI W/O LXY30),SKBR3,1+ (“1+”: 1.1~4.9)
same,(MFI W/ LXY30)/ (MFI W/O LXY30),H460,1+ (“1+”: 1.1~4.9)
same,(MFI W/ LXY30)/ (MFI W/O LXY30),H1650,4+ (“4+”: > or = 80-fold)
same,(MFI W/ LXY30)/ (MFI W/O LXY30),MDA-MB 231,4+ (“4+”: > or = 80-fold)
same,(MFI W/ LXY30)/ (MFI W/O LXY30),MCF7,2+ (“2+”: 5~19.9)
same,(MFI W/ LXY30)/ (MFI W/O LXY30),HCC827,4+ (“4+”: > or = 80-fold)
same,fold higher binding affinity compared to LXY1,"[3]; U-87MG cells, from IC50 values",44 fold
same,Relative binding index,[3],1.68 ± 0.10
same,IC50,[3],80 ± 10 nM
same,blocking of LXY30-biotin binding by free peptide,[4],inhibited or prevented
same,"MFI of tumor, fold over LXY1","[1]; tail vein, 1.8 nmol complex, ROI on xenograft tumor",1.4 folds
"NC(=O)C[C@@H]1NC(=O)[C@@H]2C[C@@H](O)CN2C(=O)CNC(=O)[C@H](Cc2cc(F)cc(F)c2)NC(=O)CNC(=O)[C@@H](CC(=O)O)NC(=O)[C@H](N)CSSC[C@H](C(N)=O)NC1=O [LXY4, cdG-Phe(3,5-diF)-G-Hyp-Nc] (H-[dC][dD]G[Phe(3,5-F2)]G[Hyp]N[dC]-NH2; disulfide 1-8; N-terminus assumed)",Relative binding index,[3],1.36 ± 0.11
same,IC50,[3],410 ± 30 nM
same,improvement in tumor targeting over LXY1,[1],did not show improvement
"N=C(N)NCCC[C@H](NC(=O)[C@H]1CSSC[C@@H](N)C(=O)N[C@H](CC(=O)O)C(=O)NCC(=O)N[C@@H](Cc2cc(F)c(F)c(F)c2)C(=O)NCC(=O)N2C[C@H](O)C[C@H]2C(=O)N[C@@H](CC(N)=O)C(=O)N1)C(N)=O [LXY7] (H-[dC][dD]G[Phe(3,4,5-F3)]G[Hyp]N[dC]R-NH2; disulfide 1-8; N-terminus assumed)",Relative binding index,[3],1.62 ± 0.10
same,IC50,[3],130 ± 12 nM
